Drawing on patent US6518423B1, “Benzopiperidine derivatives” (Eisai Co., Ltd., priority 1996, dated 2003), this text covers melting point for 89 compounds.

Counter-ions that a name gives are not always drawn.

For the compound `CN1c2ccc(C(O)c3cccs3)cc2Nc2nccnc21` (centres unmarked), the melting point is more than 275 °C.
The value for `c1ccc2c(c1)CN(Cc1ccc3c(c1)Nc1nccnc1S3)C2` was 219 to 220 °C; that for `O=c1[nH]cnc2ncn(Cc3ccc4c(c3)Nc3nccnc3S4)c12` was more than 275 °C; that for `O=C(O)CSc1ccc(NCc2ccc3c(c2)Nc2nccnc2S3)cn1` was 114 to 116 °C.
Regarding `c1ccc(NCc2ccc3c(c2)Nc2nccnc2S3)cc1`, the melting point is 183 to 186 °C.
Regarding `NC(=O)OC1CCN(Cc2ccc3c(c2)Nc2nccnc2S3)CC1`, the melting point lay in the range of 139 to 142 °C.
The compound `O=C(O)C1(c2ccccc2)CCN(Cc2ccc3c(c2)Nc2nccnc2S3)CC1` came in with a melting point of more than 297 °C.
On to `O=C(O)C1CC2(CCN(Cc3ccc4c(c3)Nc3nccnc3S4)CC2)O1` (centres unmarked), for which the melting point lay in the range of 178 to 180 °C.
With `c1cncc(CNCc2ccc3c(c2)Nc2nccnc2S3)c1`, the melting point fell in the range of 104 to 106 °C.
`c1ccc2c(c1)CCCN2Cc1ccc2c(c1)Nc1nccnc1S2` displayed a melting point of 208 to 210 °C.
As for `OCC#Cc1ncnc2c1ncn2Cc1ccc2c(c1)Nc1nccnc1S2`, the melting point is 152 to 154 °C (dec.).
On to `O=C(O)COC1CCN(Cc2ccc3c(c2)Nc2nccnc2S3)CC1`, for which the melting point lay in the range of 204 to 207 °C.
Compound `CCOC(=O)CCCCCSc1ncnc2c1ncn2Cc1ccc2c(c1)Nc1nccnc1S2` returned a melting point of 78 to 79 °C.
Compound `C(=N\c1ccccn1)/NCc1ccc2c(c1)Nc1nccnc1S2` yielded a melting point of 137 to 142 °C.
Turning to `CN(C)c1ncnc2c1[nH]c(=O)n2Cc1ccc2c(c1)Nc1nccnc1S2`, the melting point was more than 280 °C.
The compound `c1csc(Cc2ccc3c(c2)Nc2nccnc2S3)n1` returned a melting point of 160 to 161 °C.
The value for `CC(C(=O)O)c1ccc(NCc2ccc3c(c2)Nc2nccnc2S3)cc1.Cl` (centres unmarked) was 228 to 233 °C; that for `O=C(O)CC(=O)N1CCC(NCc2ccc3c(c2)Nc2nccnc2S3)CC1` was 167 to 170 °C.
`N#CN=C(Cc1ccc2c(c1)Nc1nccnc1S2)NCc1ccc(S(N)(=O)=O)cc1` returned a melting point of 241 to 245 °C.
Consider `O=c1ccn(Cc2ccc3c(c2)Nc2nccnc2S3)cc1`, for which the melting point was more than 275 °C.
The compound `CCCCNC(=O)OCc1ccc2c(c1)Nc1nccnc1S2` showed a melting point of 169 to 171 °C.
With `CCc1nccn1Cc1ccc2c(c1)Nc1nccnc1S2`, the melting point lay within 230 to 231 °C.
`OCCCCC1CCN(Cc2ccc3c(c2)Nc2nccnc2S3)CC1` yielded a melting point of 132 to 135 °C.
The same measure for `O=C1OCCC1=C1CCN(Cc2ccc3c(c2)Nc2nccnc2S3)CC1`: 159 to 162 °C; for `O=C(O)C(=O)NC1CCN(Cc2ccc3c(c2)Nc2nccnc2S3)CC1`: 222 to 226 °C.
As for `COC(C)(C)CC/C(=C\c1ncn(Cc2ccc3c(c2)Nc2nccnc2S3)c1C)C(=O)O`, the melting point lay within 202 to 204 °C.
The same measure for `FC(F)(F)c1nccn1Cc1ccc2c(c1)Nc1nccnc1S2`: 231 to 233 °C; for `NC(=O)C1CCCCN1Cc1ccc2c(c1)Nc1nccnc1S2` (centres unmarked): 209 to 211 °C.
The compound `CN1c2ccc(CNC(=N)N)cc2Nc2nccnc21` gave a melting point of more than 275 °C.
As to `O=C(O)CNC(=O)NC1CCN(Cc2ccc3c(c2)Nc2nccnc2S3)CC1`, the melting point lay within 207 to 210 °C.
On to `Cc1ccc(NCc2ccc3c(c2)Nc2nccnc2S3)cn1`, for which the melting point lay in the range of 205 to 208 °C.
As to `CN(C)S(=O)(=O)NC1CCN(C(=N)Cc2ccc3c(c2)Nc2nccnc2S3)CC1.Cl`, the melting point is 215 to 218 °C.
As to `CS(=O)(=O)N(Cc1ccc2c(c1)Nc1nccnc1S2)c1cccnc1`, the melting point lay in the range of 208 to 210 °C.
`Cc1c(C(C)(C)O)ncn1Cc1ccc2c(c1)Nc1nccnc1S2` showed a melting point of 264 to 266 °C.
In turn, `Cl.Oc1ccc2c(c1)Nc1nccnc1N2` registered a melting point of more than 275 °C.
In the case of `N/C(=N\S(N)(=O)=O)C1CCN(Cc2ccc3c(c2)Nc2nccnc2S3)CC1`, the melting point lay in the range of 202 to 206 °C.
The value for `O=C(O)C1(c2ccc(O)cc2)CCN(Cc2ccc3c(c2)Nc2nccnc2S3)CC1` was 260 to 262 °C.
Regarding `CS(=O)(=O)/N=C/N1CCN(Cc2ccc3c(c2)Nc2nccnc2S3)CC1`, the melting point was in the range of 212 to 214 °C.
As to `COc1cc2c(cc1CN1CCC(CCC(C)C(=O)O)CC1)Nc1nccnc1S2` (centres unmarked), the melting point lay within 155 to 160 °C.
The value for `O=c1c2ccccc2[nH]n1Cc1ccc2c(c1)Nc1nccnc1S2` was more than 275 °C.
The same measure for `OCc1ccc2c(c1)Nc1nccnc1S2`: 187 to 189 °C.
As to `O=C(O)CCCCCCCCCCSc1ncnc2c1ncn2Cc1ccc2c(c1)Nc1nccnc1S2`, the melting point fell in the range of 154 to 156 °C.
The compound `CCNC(=O)c1ccc2c(c1)Nc1nccnc1S2` registered a melting point of 274 to 275 °C.
`CCCN1c2ccccc2Nc2nccnc21`: the melting point fell in the range of 190 to 192 °C.
As for `O=C(O)CCCCCCCCCCSc1ncnc2ncn(Cc3ccc4c(c3)Nc3nccnc3S4)c12`, the melting point was in the range of 166 to 170 °C.
With `CN(C)c1c(N2CCN(Cc3ccc4c(c3)Nc3nccnc3S4)CC2)c(=O)c1=O`, the melting point was 296 to 300 °C (dec.).
As to `CN1c2ccc(C#N)cc2Nc2nccnc21`, the melting point was in the range of 274 to 275 °C.
`COc1cc(C2CCN(Cc3ccc4c(c3)Nc3nccnc3S4)CC2)ccc1CC(=O)O`: the melting point was 171 to 177 °C (dec.).
As to `N#CN=CN1CCN(Cc2ccc3c(c2)Nc2nccnc2S3)CC1`, the melting point was 238 to 241 °C (dec.).
Take `CC(CCC1CCN(C(=O)NCc2ccc3c(c2)Nc2nccnc2S3)CC1)C(=O)O` (centres unmarked): the melting point lay in the range of 94 to 98 °C.
`c1ccc(C2CCN(c3ncnc4c3ncn4Cc3ccc4c(c3)Nc3nccnc3S4)CC2)cc1` showed a melting point of 239 to 241 °C.
`CCc1ncnc2ncn(Cc3ccc4c(c3)Nc3nccnc3S4)c12`: the melting point is more than 275 °C.
In the case of `c1ccc(Oc2ccc(NCc3ccc4c(c3)Nc3nccnc3S4)cn2)cc1`, the melting point is 162 to 165 °C.
The value for `c1cnc2ncn(Cc3ccc4c(c3)Nc3nccnc3S4)c2c1` was 265 °C (dec.); that for `O=C(O)CCC1C2CCCC1CN(Cc1ccc3c(c1)Nc1nccnc1S3)C2` (centres unmarked) was 223 to 225 °C; that for `c1cnc2c(n1)Nc1cc(Cn3cncn3)ccc1S2` was 223 to 226 °C.
The same measure for `Cc1ncn(Cc2ccc3c(c2)Nc2nccnc2S3)c1CO`: 188 to 192 °C; for `O=C(c1ccccn1)c1nccn1Cc1ccc2c(c1)Nc1nccnc1S2`: 191 to 193 °C; for `CN1c2ccc(CNC(N)=O)cc2Nc2nccnc21`: more than 275 °C.
For the compound `O=C(O)CC1CCC2(CC1)CN(Cc1ccc3c(c1)Nc1nccnc1S3)C2`, the melting point was 145 °C (dec.).
As for `O=C(O)C1CN(Cc2ccc3c(c2)Nc2nccnc2S3)C1`, the melting point is 181 to 183 °C.
In turn, `Nc1nccn1Cc1ccc2c(c1)Nc1nccnc1S2` yielded a melting point of 286 to 287 °C.
With `O=C(O)c1ccc(C2CCN(Cc3ccc4c(c3)Nc3nccnc3S4)CC2)cc1`, the melting point lay within 265 to 268 °C.
On to `c1ccc(NCc2ccc3c(c2)Nc2nccnc2S3)nc1`, for which the melting point is 208 to 212 °C.
For `N/C(Cc1ccc2c(c1)Nc1nccnc1S2)=N\S(=O)(=O)C(F)(F)F`, the melting point fell in the range of 200 to 202 °C.
The value for `O=C(O)C1CCN(Cc2ccc3c(c2)Nc2nccnc2O3)CC1` was 242 to 244 °C.
`CCCCC1(CC(=O)O)CC2(CCN(Cc3ccc4c(c3)Nc3nccnc3S4)CC2)C1` gave a melting point of 133 to 135 °C.
`O=C(O)CC(=O)NC1CCN(Cc2ccc3c(c2)Nc2nccnc2S3)CC1` displayed a melting point of 149 to 151 °C.
The value for `CN1c2ccc(C(=O)c3ccccn3)cc2Nc2nccnc21` was 261 to 262 °C.
Take `CN1CCCN=C1Cc1ccc2c(c1)Nc1nccnc1S2.Cl`: the melting point is more than 280 °C.
The compound `Cl.N=C(N)NCc1ccc2c(c1)Nc1nccnc1S2` had a melting point of 279 to 282 °C.
`N/C(Cc1ccc2c(c1)Nc1nccnc1S2)=N\NS(=O)(=O)c1ccccc1` returned a melting point of 226 to 227 °C.
Regarding `COC(=O)c1ccc(-c2cn(Cc3ccc4c(c3)Nc3nccnc3S4)cn2)cc1` (as salt: trifluoroacetate), the melting point is 161 to 162 °C.
Turning to `CCOC(=O)/C=C/c1cccc(C(O)c2ccc3c(c2)Nc2nccnc2S3)n1` (centres unmarked), the melting point was 160 to 170 °C (dec.).
In the case of `CN(C=NC#N)Cc1ccc2c(c1)Nc1nccnc1S2`, the melting point lay within 197 to 198 °C.
The value for `COc1ccc(NCc2ccc3c(c2)Nc2nccnc2S3)c(OC)n1` was 160 to 164 °C; that for `O=C(O)COCC1CCN(Cc2ccc3c(c2)Nc2nccnc2S3)CC1` was 146 to 148 °C.
Compound `O=S(=O)(NC1CCN(Cc2ccc3c(c2)Nc2nccnc2S3)CC1)c1ccccc1` came in with a melting point of 157 to 158 °C.
The value for `CCOC(=O)/C=C/c1nccn1Cc1ccc2c(c1)Nc1nccnc1S2` was 213 to 215 °C; that for `C[C@@H]1CN(c2ncnc3c2ncn3Cc2ccc3c(c2)Nc2nccnc2S3)C[C@H](C)O1` was 227 to 229 °C; that for `CN1c2ccc(I)cc2Nc2nccnc21` was more than 275 °C.
For `O=C(NCCc1cn(Cc2ccc3c(c2)Nc2nccnc2S3)cn1)c1ccccc1`, the melting point fell in the range of 231 to 233 °C.
In the case of `CS(=O)(=O)NC(=O)Cc1ccc2c(c1)Nc1nccnc1S2`, the melting point was in the range of 236 to 238 °C.
Compound `CN1C2CCC1CC(NC(=O)CC1CC3(CCN(Cc4ccc5c(c4)Nc4nccnc4S5)CC3)C1)C2` (centres unmarked) showed a melting point of 181 to 184 °C.
With `COC(=O)CCCN1c2ccccc2Nc2nccnc21`, the melting point fell in the range of 189 to 190 °C.
Consider `O=C(O)CC1(O)C2CCCCCC1CN(Cc1ccc3c(c1)Nc1nccnc1S3)C2` (centres unmarked), for which the melting point was 217 to 218 °C (dec.).
In turn, `CN(CCCC(C)(C)C(=O)O)Cc1ccc2c(c1)Nc1nccnc1S2` came in with a melting point of 200 to 202 °C.
`CN1c2ccc(C(O)c3nnc[nH]3)cc2Nc2nccnc21` (centres unmarked) came in with a melting point of more than 275 °C.
On to `OC(c1ccc2c(c1)Nc1nccnc1S2)c1nccs1` (centres unmarked), for which the melting point lay within 110 to 114 °C.

As a reminder, the melting point is the temperature, or range, at which the solid turns liquid.
